From ChEMBL document CHEMBL3885881, “DrugMatrix”

Species: Rattus norvegicus
Test: DrugMatrix - Regimen: Daily Repeat
Type: toxicity, organism-based, Sprague-Dawley
Set-up: regimen Daily Repeat, gender Male, age 6-8 weeks
Details: in vivo, sc, […], route mini-PUMP - SUBCUTANEOUS, dose 0.065 mg/Kg, dose level High, vehicle 100 % SALINE; for ABSOLUTE BASOPHIL / ABSOLUTE EOSINOPHIL / ABSOLUTE LYMPHOCYTE / ABSOLUTE MONOCYTE / ABSOLUTE SEGMENTED NEUTROPHIL / BASOPHIL / EOSINOPHIL / ERYTHROCYTE COUNT / HEMATOCRIT / HEMOGLOBIN / LEUKOCYTE COUNT / LYMPHOCYTE / MEAN CORPUSCULAR HEMOGLOBIN / MEAN CORPUSCULAR HEMOGLOBIN CONCENTRATION / MEAN CORPUSCULAR VOLUME / MONOCYTE / NEUTROPHIL / NUCLEATED RED BLOOD CELLS / PLATELET COUNT: tissue Blood; for ALANINE AMINOTRANSFERASE / ALBUMIN / ALKALINE PHOSPHATASE / ASPARTATE AMINOTRANSFERASE / BLOOD UREA NITROGEN / CARBON DIOXIDE / CHLORIDE / CHOLESTEROL / CREATININE / GLUCOSE / LACTATE DEHYDROGENASE / LIPASE / PHOSPHORUS / POTASSIUM / SODIUM / TOTAL BILIRUBIN / TOTAL PROTEIN / URIC ACID: tissue Plasma

C[C@]12CCC(=O)C=C1CC[C@@H]1[C@@H]2[C@@H](O)C[C@]2(C=O)[C@@H](C(=O)CO)CC[C@@H]12 [ALDOSTERONE]
ABSOLUTE BASOPHIL (72 h, time 3 day): 0 CELLS/uL | ABSOLUTE EOSINOPHIL (72 h, time 3 day): 0 CELLS/uL | ABSOLUTE LYMPHOCYTE (72 h, time 3 day): 11286 CELLS/uL | ABSOLUTE MONOCYTE (72 h, time 3 day): 180.67 CELLS/uL | ABSOLUTE SEGMENTED NEUTROPHIL (72 h, time 3 day): 1866.67 CELLS/uL | BASOPHIL (72 h, time 3 day): 0% | EOSINOPHIL (72 h, time 3 day): 0% | ERYTHROCYTE COUNT (72 h, time 3 day): 5.69 x10E6/uL | HEMATOCRIT (72 h, time 3 day): 34.17% | HEMOGLOBIN (72 h, time 3 day): 12.73 G/DL | LEUKOCYTE COUNT (72 h, time 3 day): 13.33 x10E3/uL | LYMPHOCYTE (72 h, time 3 day): 84.67% | MEAN CORPUSCULAR HEMOGLOBIN (72 h, time 3 day): 22.37 pg | MEAN CORPUSCULAR HEMOGLOBIN CONCENTRATION (72 h, time 3 day): 37.3 G/DL | MEAN CORPUSCULAR VOLUME (72 h, time 3 day): 60.03 fL | MONOCYTE (72 h, time 3 day): 1.33% | NEUTROPHIL (72 h, time 3 day): 14% | NUCLEATED RED BLOOD CELLS (72 h, time 3 day): 0.33 /100WBC | PLATELET COUNT (72 h, time 3 day): 1067.67 x10E3/uL | ALANINE AMINOTRANSFERASE (72 h, time 3 day): 52.33 u/L | ALBUMIN (72 h, time 3 day): 3.8 G/DL | ALKALINE PHOSPHATASE (72 h, time 3 day): 293.67 u/L | ASPARTATE AMINOTRANSFERASE (72 h, time 3 day): 90 u/L | BLOOD UREA NITROGEN (72 h, time 3 day): 15.67 mg/dL | CARBON DIOXIDE (72 h, time 3 day): 32 mmol/L | CHLORIDE (72 h, time 3 day): 100 MEQ/L | CHOLESTEROL (72 h, time 3 day): 66.33 mg/dL | CREATININE (72 h, time 3 day): 0.14 mg/dL | GLUCOSE (72 h, time 3 day): 146 mg/dL | LACTATE DEHYDROGENASE (72 h, time 3 day): 443 u/L | LIPASE (72 h, time 3 day): 9.33 u/L | PHOSPHORUS (72 h, time 3 day): 11.27 mg/dL | POTASSIUM (72 h, time 3 day): 5.07 MEQ/L | SODIUM (72 h, time 3 day): 146.93 MEQ/L | TOTAL BILIRUBIN (72 h, time 3 day): 0.2 mg/dL | TOTAL PROTEIN (72 h, time 3 day): 5.73 G/DL | URIC ACID (72 h, time 3 day): 1.5 mg/dL | ABSOLUTE BASOPHIL (120 h, time 5 day): 0 CELLS/uL | ABSOLUTE EOSINOPHIL (120 h, time 5 day): 69 CELLS/uL | ABSOLUTE LYMPHOCYTE (120 h, time 5 day): 17030 CELLS/uL | ABSOLUTE MONOCYTE (120 h, time 5 day): 489 CELLS/uL | ABSOLUTE SEGMENTED NEUTROPHIL (120 h, time 5 day): 1812 CELLS/uL | BASOPHIL (120 h, time 5 day): 0% | EOSINOPHIL (120 h, time 5 day): 0.33% | ERYTHROCYTE COUNT (120 h, time 5 day): 5.8 x10E6/uL | HEMATOCRIT (120 h, time 5 day): 34.77% | HEMOGLOBIN (120 h, time 5 day): 12.97 G/DL | LEUKOCYTE COUNT (120 h, time 5 day): 19.4 x10E3/uL | LYMPHOCYTE (120 h, time 5 day): 87.33% | MEAN CORPUSCULAR HEMOGLOBIN (120 h, time 5 day): 22.4 pg | MEAN CORPUSCULAR HEMOGLOBIN CONCENTRATION (120 h, time 5 day): 37.3 G/DL | MEAN CORPUSCULAR VOLUME (120 h, time 5 day): 60.03 fL | MONOCYTE (120 h, time 5 day): 2.67% | NEUTROPHIL (120 h, time 5 day): 9.67% | NUCLEATED RED BLOOD CELLS (120 h, time 5 day): 0 /100WBC | PLATELET COUNT (120 h, time 5 day): 1473 x10E3/uL | ALANINE AMINOTRANSFERASE (120 h, time 5 day): 47.67 u/L | ALBUMIN (120 h, time 5 day): 3.77 G/DL | ALKALINE PHOSPHATASE (120 h, time 5 day): 252 u/L | ASPARTATE AMINOTRANSFERASE (120 h, time 5 day): 83 u/L | BLOOD UREA NITROGEN (120 h, time 5 day): 11.33 mg/dL | CARBON DIOXIDE (120 h, time 5 day): 36.33 mmol/L | CHLORIDE (120 h, time 5 day): 96.67 MEQ/L | CHOLESTEROL (120 h, time 5 day): 64.33 mg/dL | CREATININE (120 h, time 5 day): 0.13 mg/dL | GLUCOSE (120 h, time 5 day): 142.67 mg/dL | LACTATE DEHYDROGENASE (120 h, time 5 day): 335 u/L | LIPASE (120 h, time 5 day): 9 u/L | PHOSPHORUS (120 h, time 5 day): 11.97 mg/dL | POTASSIUM (120 h, time 5 day): 5.4 MEQ/L | SODIUM (120 h, time 5 day): 147.3 MEQ/L | TOTAL BILIRUBIN (120 h, time 5 day): 0.17 mg/dL | TOTAL PROTEIN (120 h, time 5 day): 5.53 G/DL | URIC ACID (120 h, time 5 day): 1.93 mg/dL | ABSOLUTE BASOPHIL (time 14 day): 0 CELLS/uL | ABSOLUTE EOSINOPHIL (time 14 day): 65.4 CELLS/uL | ABSOLUTE LYMPHOCYTE (time 14 day): 13364.4 CELLS/uL | ABSOLUTE MONOCYTE (time 14 day): 314 CELLS/uL | ABSOLUTE SEGMENTED NEUTROPHIL (time 14 day): 2076.2 CELLS/uL | BASOPHIL (time 14 day): 0% | EOSINOPHIL (time 14 day): 0.6% | ERYTHROCYTE COUNT (time 14 day): 6.35 x10E6/uL | HEMATOCRIT (time 14 day): 37.42% | HEMOGLOBIN (time 14 day): 13.62 G/DL | LEUKOCYTE COUNT (time 14 day): 15.82 x10E3/uL | LYMPHOCYTE (time 14 day): 84% | MEAN CORPUSCULAR HEMOGLOBIN (time 14 day): 21.48 pg | MEAN CORPUSCULAR HEMOGLOBIN CONCENTRATION (time 14 day): 36.4 G/DL | MEAN CORPUSCULAR VOLUME (time 14 day): 59.08 fL | MONOCYTE (time 14 day): 2% | NEUTROPHIL (time 14 day): 13.4% | NUCLEATED RED BLOOD CELLS (time 14 day): 0 /100WBC | PLATELET COUNT (time 14 day): 1043.2 x10E3/uL | ALANINE AMINOTRANSFERASE (time 14 day): 55.8 u/L | ALBUMIN (time 14 day): 4.14 G/DL | ALKALINE PHOSPHATASE (time 14 day): 346.6 u/L | ASPARTATE AMINOTRANSFERASE (time 14 day): 86.8 u/L | BLOOD UREA NITROGEN (time 14 day): 12.2 mg/dL | CARBON DIOXIDE (time 14 day): 43 mmol/L | CHLORIDE (time 14 day): 94.2 MEQ/L | CHOLESTEROL (time 14 day): 64.6 mg/dL | CREATININE (time 14 day): 0.17 mg/dL | GLUCOSE (time 14 day): 150.2 mg/dL | LACTATE DEHYDROGENASE (time 14 day): 88.6 u/L | LIPASE (time 14 day): 9.2 u/L | PHOSPHORUS (time 14 day): 11.36 mg/dL | POTASSIUM (time 14 day): 4.4 MEQ/L | SODIUM (time 14 day): 147.78 MEQ/L | TOTAL BILIRUBIN (time 14 day): 0.14 mg/dL | TOTAL PROTEIN (time 14 day): 6.2 G/DL | URIC ACID (time 14 day): 1.72 mg/dL
